Test systems include DMS-273; RXF 631; SNB-78; DMS-114; LXFL 529; M19-MEL; HOP-18; KM-20L2; XF498.
Common to all, as to experiment: NCI anticancer screen, dose series, 48 h

Molecules are shown by their SMILES.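 48-hour exposure; five concentrations; linearly interpolated endpoints. GI50 = concentration required for 50% inhibition of growth.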 Active and inactive are the calls of the source. Cut-off read from the data, not from the text of the source: active = GI50 up to about 1.1 µM and inactive = higher. Bounds are passed on as bounds.

For `O=c1[nH]ccc2c1ccn2C1CC(O)C(CO)O1` (configuration not stated), the GI50 in the test on DMS-273, in the test with RXF 631, with SNB-78, with DMS-114, in the test on LXFL 529 and with M19-MEL was > 100 µM (inactive) in each case. Moreover, the GI50 with HOP-18 is > 100 µM (inactive).

In the case of `CC(=O)Nc1ccc(-c2nnc(SCC(=O)Nc3ccc(Cl)cc3Cl)o2)cc1`, the GI50 with DMS-273 is 39.5 µM (inactive); in the test on SNB-78, > 100 µM (inactive); with DMS-114 it was 15.7 µM (inactive); in the test with LXFL 529 it was 19.3 µM (inactive); in the test on KM-20L2, 42.7 µM (inactive); in the test with M19-MEL, 51.9 µM (inactive). For the same compound, the GI50 in the test with HOP-18 is 55.3 µM (inactive).

On to `COC(OC)c1cc2c(cc1C(=O)[C@@]13CCC[C@@H]1NC(=O)O3)OCO2`, for which the GI50 is > 100 µM (inactive) in the test with DMS-273; > 100 µM (inactive) in the test with SNB-78; > 100 µM (inactive) in the test with DMS-114; 84.5 µM (inactive) in the test on XF498; > 100 µM (inactive) in the test on M19-MEL.

In the case of `c1ccc2[nH]c(CNc3ccc(C4C[Se]N=N4)cc3)nc2c1` (configuration not stated), the GI50 was 67.1 µM (inactive) with DMS-273; 21.8 µM (inactive) with DMS-114; 18.7 µM (inactive) in the test with LXFL 529; 41.3 µM (inactive) in the test with M19-MEL; > 100 µM (inactive) with HOP-18.

As for `O=C(O)CC[C@H](NC(=O)c1ccc(-n2nc3ccc(=O)cc-3[nH]c2=O)cc1)C(=O)O`, the GI50 in the test with DMS-273, with RXF 631, in the test with SNB-78, with DMS-114, with LXFL 529 and with KM-20L2 was > 100 µM (inactive) throughout. For the same compound, the GI50 in the test on M19-MEL and in the test on HOP-18 was > 100 µM (inactive) in each case.

On to `O=C1C=C(Nc2ccccc2C(=O)CC(=O)C(=O)Nc2cccc([N+](=O)[O-])c2)c2ccccc2C1=O`, for which the GI50 in the test on DMS-273 is 31.1 µM (inactive); in the test with RXF 631 it was > 100 µM (inactive); in the test with SNB-78, 49.1 µM (inactive); in the test on DMS-114, 18.5 µM (inactive); in the test on LXFL 529 it was 32.4 µM (inactive); in the test on KM-20L2, > 100 µM (inactive). Moreover, the GI50 is 19.6 µM (inactive) in the test with XF498 and 4.45 µM (inactive) in the test with M19-MEL.

Turning to `COc1ccc(/C(=N/NC(N)=O)C(c2ccc(OC)cc2)C2C(=O)Oc3ccccc32)cc1` (configuration not stated), the GI50 with DMS-273, in the test with RXF 631, in the test with SNB-78, with DMS-114, in the test on LXFL 529 and with KM-20L2 was > 100 µM (inactive) throughout. In addition, the GI50 in the test with XF498 and in the test with M19-MEL was > 100 µM (inactive) throughout.

In the case of `CCCCOP1(=O)C=C(C)C(=C(Cl)Cl)C(C)=C1` (configuration not stated), the GI50 in the test with DMS-273 was 3.63 µM (inactive); in the test on RXF 631 it was 16.9 µM (inactive); in the test on SNB-78 it was 0.925 µM (active); with DMS-114 it was 3.48 µM (inactive); with KM-20L2, 2.31 µM (inactive); in the test on XF498, 13.6 µM (inactive). The GI50 with M19-MEL was 11.5 µM (inactive); with HOP-18 it was 22.7 µM (inactive).

For `CCOc1ccc(NC(=O)CC2Sc3ccccc3NC2=O)cc1` (configuration not stated), the GI50 in the test on DMS-273 is 33.4 µM (inactive); with SNB-78, 57.1 µM (inactive); in the test on DMS-114 it was > 100 µM (inactive); in the test with LXFL 529 it was > 100 µM (inactive); in the test on KM-20L2, > 100 µM (inactive); in the test on M19-MEL, > 100 µM (inactive). The GI50 in the test with HOP-18 is 20.5 µM (inactive).

Take `Cc1cc2c(c3c1c1ccccc1n3C)C(=O)C=CC2=O`: the GI50 was 22.5 µM (inactive) in the test on DMS-273, > 54.1 µM (inactive) in the test on SNB-78, 5.6 µM (inactive) with LXFL 529 and 17.7 µM (inactive) with XF498.

Consider `COC(=O)c1sc(C(=O)OC)c2c1CSC2`, for which the GI50 in the test with DMS-273 was > 100 µM (inactive); with RXF 631, > 100 µM (inactive); with SNB-78, 49.3 µM (inactive); with DMS-114, > 85.5 µM (inactive); in the test with LXFL 529, > 100 µM (inactive); with KM-20L2, > 100 µM (inactive). Further, the GI50 in the test on XF498 is 34.7 µM (inactive); in the test on M19-MEL it was > 100 µM (inactive); in the test with HOP-18, > 100 µM (inactive).

Consider `CC1OC(n2cc(F)c(=O)[nH]c2=O)CCC1=O` (configuration not stated), for which the GI50 is 62.5 µM (inactive) with DMS-273; 39.9 µM (inactive) in the test on RXF 631; > 100 µM (inactive) in the test with SNB-78; > 100 µM (inactive) with DMS-114; > 100 µM (inactive) in the test on LXFL 529; 96.6 µM (inactive) in the test on KM-20L2. Moreover, the GI50 in the test on M19-MEL is > 100 µM (inactive); with HOP-18, 65.2 µM (inactive).

Regarding `N#CC(NNC(=O)Cc1ccccc1)c1c(O)ccc2ccccc12` (configuration not stated), the GI50 in the test with DMS-273 was 3.68 µM (inactive); with SNB-78, 13.6 µM (inactive); in the test on DMS-114, 2.08 µM (inactive); in the test on KM-20L2, 15.8 µM (inactive); in the test with M19-MEL it was 2.71 µM (inactive); in the test with HOP-18 it was 4.36 µM (inactive).

For the compound `COc1cccc(OC)c1/C=N\N1C(=O)c2ccccc2C1=O`, the GI50 with DMS-273 is 21.1 µM (inactive); with RXF 631 it was 29.4 µM (inactive); with SNB-78, 59.4 µM (inactive); in the test with DMS-114, 31.6 µM (inactive); with LXFL 529 it was 40.7 µM (inactive); in the test with KM-20L2, 19.2 µM (inactive). The results for the GI50 in the test on XF498, in the test with M19-MEL and in the test with HOP-18 were 28.6 µM (inactive), 48.4 µM (inactive) and > 100 µM (inactive), respectively.

On to `CSc1nc(NC2OC(COC(C)=O)C(OC(C)=O)C(OC(C)=O)C2OC(C)=O)c2c(n1)OCC2=O` (configuration not stated), for which the GI50 in the test with RXF 631, with SNB-78, in the test with DMS-114, in the test with LXFL 529, in the test on KM-20L2 and in the test with M19-MEL was > 100 µM (inactive) in each case. Moreover, the GI50 in the test on HOP-18 was > 100 µM (inactive).

Consider `COc1ccc(N2C(=O)C3c4[nH]c5ccccc5c4C4CCC(C(C)(C)C)CC4C3C2=O)cc1OC` (configuration not stated), for which the GI50 is 17.1 µM (inactive) with DMS-273; 19.3 µM (inactive) with SNB-78; 18.5 µM (inactive) in the test on LXFL 529; 36.8 µM (inactive) in the test with KM-20L2; 18.2 µM (inactive) in the test on XF498; 51.1 µM (inactive) in the test on M19-MEL. Also, the GI50 with HOP-18 is 20.9 µM (inactive).

For `OC12CC/C(=N/OCc3ccccc3)CC1c1ccccc12` (configuration not stated), the GI50 in the test with DMS-273, in the test on SNB-78, in the test with DMS-114, in the test on LXFL 529, in the test on KM-20L2 and in the test on M19-MEL was > 100 µM (inactive) throughout. The GI50 in the test on HOP-18 was > 100 µM (inactive).

In the case of `CCOC(=O)c1cc(/C=C/C(C)=C/C(=O)OC)oc1-c1ccccc1`, the GI50 in the test with DMS-273 is 92.5 µM (inactive); in the test on DMS-114, 63.5 µM (inactive); with KM-20L2 it was 81.5 µM (inactive); in the test with XF498, > 100 µM (inactive); in the test on M19-MEL, > 100 µM (inactive); with HOP-18 it was 42.9 µM (inactive).

Consider `CCn1c2ccccc2c(=O)c2c(OC)ccc(OC)c21`, for which the GI50 in the test on DMS-273 was 30.8 µM (inactive); in the test on RXF 631 it was 49.1 µM (inactive); with LXFL 529 it was 34 µM (inactive); in the test with KM-20L2 it was 92.5 µM (inactive); in the test on XF498 it was 34.1 µM (inactive); with M19-MEL, 74 µM (inactive).

For the compound `COC(=O)/C(=C/CC(N=C(c1ccccc1)c1ccccc1)C(=O)OC)N=C(c1ccccc1)c1ccccc1` (configuration not stated), the GI50 with DMS-273 was > 100 µM (inactive); with DMS-114, 15.1 µM (inactive); in the test on LXFL 529 it was > 100 µM (inactive); in the test with XF498, > 100 µM (inactive); in the test with M19-MEL, > 100 µM (inactive).

For `CC#CC1C(OC(=O)c2ccccc2)CCCC1(CI)N=[N+]=[N-]` (configuration not stated), the GI50 in the test with DMS-273 was 38.7 µM (inactive); in the test with SNB-78 it was > 100 µM (inactive); in the test with DMS-114, 25.1 µM (inactive); in the test with LXFL 529 it was 36.4 µM (inactive); with KM-20L2, 60.7 µM (inactive); in the test on XF498 it was 20.1 µM (inactive). Further, the GI50 in the test on M19-MEL is 48.5 µM (inactive); with HOP-18, > 100 µM (inactive).

Consider `N#CC1=C(c2ccccc2)NN(Cc2ccccc2)C(c2ccc(Cl)cc2)CC1=O` (configuration not stated), for which the GI50 with DMS-273 was 21.4 µM (inactive); with RXF 631, 28.1 µM (inactive); in the test on SNB-78, 99.3 µM (inactive); with DMS-114, 32.3 µM (inactive); with LXFL 529, 20.4 µM (inactive); in the test with KM-20L2 it was 20.8 µM (inactive). Also, the figures for the GI50 in the test on XF498 and in the test on HOP-18 were 15 µM (inactive) and 17 µM (inactive), respectively.

For `OC1(C23CC4CC(CC(C4)C2)C3)CSCC1(O)C12CC3CC(CC(C3)C1)C2` (configuration not stated), the GI50 with DMS-273, in the test on RXF 631, in the test with SNB-78, with DMS-114, with LXFL 529 and in the test with XF498 was > 100 µM (inactive) in each case. The GI50 with M19-MEL was 64.6 µM (inactive).

With `CN(C)C(=Nc1nc(N(C)C)s[s+]1)N(C)C`, the GI50 in the test on DMS-273, in the test on RXF 631, with DMS-114, in the test on LXFL 529, in the test on KM-20L2 and in the test on XF498 was > 100 µM (inactive) throughout. Further, the GI50 in the test with M19-MEL and in the test on HOP-18 was > 100 µM (inactive) throughout.

Turning to `CC1(C)CCC[C@@]2(C)C1CC[C@H]1CC(O)C3(C)CCC12C3` (some centres not stated), the GI50 in the test on RXF 631 is 19.1 µM (inactive); with SNB-78 it was 17.2 µM (inactive); in the test with DMS-114, 17.3 µM (inactive); in the test on LXFL 529 it was 17.2 µM (inactive); in the test on KM-20L2, 18.9 µM (inactive); with XF498, 17.4 µM (inactive). In the test on M19-MEL, the GI50 is 21.1 µM (inactive).

With `Cc1ccc2[nH]c3c(C)c4c(c(C)c3c2c1)CN(C)C=C4`, the GI50 in the test with DMS-273 was 1.04 µM (active); with RXF 631, 0.931 µM (active); with SNB-78 it was 0.738 µM (active); in the test with LXFL 529, 0.377 µM (active); in the test on KM-20L2 it was 2.18 µM (inactive); in the test on XF498, 1.25 µM (inactive). Besides, the GI50 in the test with HOP-18 is 7.46 µM (inactive).

(Values after ChEMBL document CHEMBL1201862, “PubChem BioAssay data set” (2004).)
